Source: patent US20140158116A1, “INHIBITING TRPA1 FOR THE TREATMENT OF ASTHMA” (Cubist Pharmaceuticals, Inc., priority 2012, published 2014)
“Also recorded” adds a separate entry of the source.

Legend:
hTRPV1 = hTRPV1 (Homo sapiens, UniProt Q8NER1); experiment: Patch clamp selectivity, hTRPV1; format: cell-based
Experimental: (§1) Data for TRPA1 inhibition and the selectivity of TRPA1 inhibition was obtained by this method for the compound of Formula (Ia) and included in Table 1 and Table 2. All currents were recorded in whole-cell configuration using EPC-9 and EPC-10 amplifiers and Patchmaster software (HEKA). […] The standard pipette solution consisted of 140 mM CsAsp, 10 mM EGTA, 10 mM HEPES, 2.27 mM MgCl2, 1.91 mM CaCl2, 4 mM MgATP, and 0.1-0.3 mM Na2GTP, with pH adjusted to 7.2 with CsOH. In addition, a solution containing 145 mM CsCl, 10 mM HEPES, 10 mM EGTA and 1 mM MgCl2 (pH 7.2 adjusted with CsOH) can be used. The standard bath solution contained 150 mM NaCl, 10 mM HEPES, 10 mM glucose, 4.5 mM KCl, 1 mM EGTA, 3 mM MgCl2, with pH adjusted to 7.4 with NaOH. In some instances, 2 mM CaCl2 was added in place of EGTA and the concentration of MgCl2 was reduced to 1 mM.
(§2) Data were collected either by continuous recordings at −60 mV or by applying voltage ramps from a holding potential of 0 mV every 4 s. […] Inward and outward currents were analyzed from the ramps at −80 and 80 mV, respectively. […]
(§3) Solutions were switched using a gravity-fed continuous focal perfusion system. […] Temperatures were confirmed using a thermistor (Warner Instruments, TA-29), with temperatures at the recorded cell estimated to be within +/−2° C. of those reported. […]

hTRPV4 = hTRPV4 (Homo sapiens, UniProt Q9HBA0); experiment: Patch clamp selectivity, hTRPV4 block; format: cell-based
Chain of hTRPV4 (Q9HBA0 whole entry): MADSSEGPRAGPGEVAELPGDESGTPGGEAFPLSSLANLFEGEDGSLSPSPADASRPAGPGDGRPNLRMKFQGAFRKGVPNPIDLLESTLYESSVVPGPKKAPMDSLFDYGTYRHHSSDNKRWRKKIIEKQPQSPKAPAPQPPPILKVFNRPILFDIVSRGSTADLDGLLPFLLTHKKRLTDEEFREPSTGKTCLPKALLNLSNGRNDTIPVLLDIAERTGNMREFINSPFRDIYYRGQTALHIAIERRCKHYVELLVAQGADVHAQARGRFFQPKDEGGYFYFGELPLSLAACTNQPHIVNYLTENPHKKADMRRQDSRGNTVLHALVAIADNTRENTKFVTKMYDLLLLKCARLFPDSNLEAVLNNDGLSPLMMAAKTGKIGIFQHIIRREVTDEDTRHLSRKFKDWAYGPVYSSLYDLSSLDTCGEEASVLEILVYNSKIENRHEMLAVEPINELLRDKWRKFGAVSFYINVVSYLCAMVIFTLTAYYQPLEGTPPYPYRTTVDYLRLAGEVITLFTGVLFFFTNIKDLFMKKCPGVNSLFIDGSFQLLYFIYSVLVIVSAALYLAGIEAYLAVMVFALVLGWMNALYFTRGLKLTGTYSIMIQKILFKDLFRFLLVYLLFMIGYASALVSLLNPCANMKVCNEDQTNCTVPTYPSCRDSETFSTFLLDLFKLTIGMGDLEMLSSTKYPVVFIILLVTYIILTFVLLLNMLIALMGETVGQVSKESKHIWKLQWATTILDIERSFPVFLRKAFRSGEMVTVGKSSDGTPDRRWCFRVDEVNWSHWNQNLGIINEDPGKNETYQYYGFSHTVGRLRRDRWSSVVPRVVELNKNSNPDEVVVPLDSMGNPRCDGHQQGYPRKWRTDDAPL
Experimental: as §1, §2, §3

hTRPV6 = biological target: T1, hTRPV6 (Homo sapiens, UniProt Q9H1D0); experiment: Patch clamp selectivity, hTRPV6; format: cell-based
T1 sequence (Q9H1D0 1-765): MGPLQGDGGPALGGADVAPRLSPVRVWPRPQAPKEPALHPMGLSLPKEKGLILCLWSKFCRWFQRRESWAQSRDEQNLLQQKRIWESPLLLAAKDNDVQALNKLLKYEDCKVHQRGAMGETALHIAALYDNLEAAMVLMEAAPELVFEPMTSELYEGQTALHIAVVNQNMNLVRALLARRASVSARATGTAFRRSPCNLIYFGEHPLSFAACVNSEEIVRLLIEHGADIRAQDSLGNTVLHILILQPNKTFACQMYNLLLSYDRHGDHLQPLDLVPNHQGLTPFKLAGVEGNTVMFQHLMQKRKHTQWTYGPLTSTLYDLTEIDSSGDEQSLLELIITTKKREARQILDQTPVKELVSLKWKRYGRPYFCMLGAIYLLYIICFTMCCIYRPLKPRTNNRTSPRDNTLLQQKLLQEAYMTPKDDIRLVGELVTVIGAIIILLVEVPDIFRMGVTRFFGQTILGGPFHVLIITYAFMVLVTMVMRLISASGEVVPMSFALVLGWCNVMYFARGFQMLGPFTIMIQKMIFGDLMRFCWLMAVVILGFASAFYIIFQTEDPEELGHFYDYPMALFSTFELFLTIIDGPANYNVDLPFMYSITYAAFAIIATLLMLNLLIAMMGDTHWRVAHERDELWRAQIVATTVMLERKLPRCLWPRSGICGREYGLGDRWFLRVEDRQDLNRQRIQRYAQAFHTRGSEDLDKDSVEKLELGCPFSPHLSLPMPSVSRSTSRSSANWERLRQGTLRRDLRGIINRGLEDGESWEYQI
Experimental: as §1, §2, §3

hERG = hERG (Homo sapiens, UniProt Q12809); experiment: Patch clamp selectivity, hERG; format: cell-based
Chain of hERG (Q12809 whole entry): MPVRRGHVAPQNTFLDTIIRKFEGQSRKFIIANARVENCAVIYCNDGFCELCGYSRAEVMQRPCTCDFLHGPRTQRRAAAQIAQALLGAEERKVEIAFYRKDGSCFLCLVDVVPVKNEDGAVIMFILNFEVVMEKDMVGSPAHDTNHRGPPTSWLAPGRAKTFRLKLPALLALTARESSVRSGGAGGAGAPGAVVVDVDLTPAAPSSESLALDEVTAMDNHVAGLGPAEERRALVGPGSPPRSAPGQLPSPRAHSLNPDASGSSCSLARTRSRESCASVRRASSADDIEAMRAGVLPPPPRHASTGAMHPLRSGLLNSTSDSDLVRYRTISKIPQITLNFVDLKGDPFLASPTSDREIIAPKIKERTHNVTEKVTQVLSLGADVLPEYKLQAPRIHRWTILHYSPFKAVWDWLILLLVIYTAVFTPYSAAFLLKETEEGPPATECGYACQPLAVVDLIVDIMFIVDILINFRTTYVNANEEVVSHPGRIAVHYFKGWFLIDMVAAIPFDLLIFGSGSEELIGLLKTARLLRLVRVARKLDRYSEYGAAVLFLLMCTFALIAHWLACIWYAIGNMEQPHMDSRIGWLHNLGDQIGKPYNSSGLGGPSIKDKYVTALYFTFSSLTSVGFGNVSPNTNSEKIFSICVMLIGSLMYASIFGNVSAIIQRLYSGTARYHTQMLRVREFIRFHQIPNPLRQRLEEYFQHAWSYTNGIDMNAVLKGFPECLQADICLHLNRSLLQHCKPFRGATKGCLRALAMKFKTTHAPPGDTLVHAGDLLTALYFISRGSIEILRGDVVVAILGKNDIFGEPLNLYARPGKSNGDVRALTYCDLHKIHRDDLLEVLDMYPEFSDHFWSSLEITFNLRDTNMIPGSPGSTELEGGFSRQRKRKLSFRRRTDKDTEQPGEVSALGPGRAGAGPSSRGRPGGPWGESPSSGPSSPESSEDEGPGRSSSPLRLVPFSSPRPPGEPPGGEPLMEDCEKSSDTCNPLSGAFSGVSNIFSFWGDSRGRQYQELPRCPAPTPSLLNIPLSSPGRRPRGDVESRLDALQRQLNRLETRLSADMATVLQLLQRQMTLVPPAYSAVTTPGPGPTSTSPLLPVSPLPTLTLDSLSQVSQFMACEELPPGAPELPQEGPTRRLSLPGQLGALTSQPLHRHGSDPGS
Experimental: as §1, §2, §3

hNaV1.2 = hNaV1.2 (Homo sapiens, UniProt Q99250); experiment: Patch clamp selectivity, hNaV1.2; format: cell-based
Chain of hNaV1.2 (Q99250 whole entry): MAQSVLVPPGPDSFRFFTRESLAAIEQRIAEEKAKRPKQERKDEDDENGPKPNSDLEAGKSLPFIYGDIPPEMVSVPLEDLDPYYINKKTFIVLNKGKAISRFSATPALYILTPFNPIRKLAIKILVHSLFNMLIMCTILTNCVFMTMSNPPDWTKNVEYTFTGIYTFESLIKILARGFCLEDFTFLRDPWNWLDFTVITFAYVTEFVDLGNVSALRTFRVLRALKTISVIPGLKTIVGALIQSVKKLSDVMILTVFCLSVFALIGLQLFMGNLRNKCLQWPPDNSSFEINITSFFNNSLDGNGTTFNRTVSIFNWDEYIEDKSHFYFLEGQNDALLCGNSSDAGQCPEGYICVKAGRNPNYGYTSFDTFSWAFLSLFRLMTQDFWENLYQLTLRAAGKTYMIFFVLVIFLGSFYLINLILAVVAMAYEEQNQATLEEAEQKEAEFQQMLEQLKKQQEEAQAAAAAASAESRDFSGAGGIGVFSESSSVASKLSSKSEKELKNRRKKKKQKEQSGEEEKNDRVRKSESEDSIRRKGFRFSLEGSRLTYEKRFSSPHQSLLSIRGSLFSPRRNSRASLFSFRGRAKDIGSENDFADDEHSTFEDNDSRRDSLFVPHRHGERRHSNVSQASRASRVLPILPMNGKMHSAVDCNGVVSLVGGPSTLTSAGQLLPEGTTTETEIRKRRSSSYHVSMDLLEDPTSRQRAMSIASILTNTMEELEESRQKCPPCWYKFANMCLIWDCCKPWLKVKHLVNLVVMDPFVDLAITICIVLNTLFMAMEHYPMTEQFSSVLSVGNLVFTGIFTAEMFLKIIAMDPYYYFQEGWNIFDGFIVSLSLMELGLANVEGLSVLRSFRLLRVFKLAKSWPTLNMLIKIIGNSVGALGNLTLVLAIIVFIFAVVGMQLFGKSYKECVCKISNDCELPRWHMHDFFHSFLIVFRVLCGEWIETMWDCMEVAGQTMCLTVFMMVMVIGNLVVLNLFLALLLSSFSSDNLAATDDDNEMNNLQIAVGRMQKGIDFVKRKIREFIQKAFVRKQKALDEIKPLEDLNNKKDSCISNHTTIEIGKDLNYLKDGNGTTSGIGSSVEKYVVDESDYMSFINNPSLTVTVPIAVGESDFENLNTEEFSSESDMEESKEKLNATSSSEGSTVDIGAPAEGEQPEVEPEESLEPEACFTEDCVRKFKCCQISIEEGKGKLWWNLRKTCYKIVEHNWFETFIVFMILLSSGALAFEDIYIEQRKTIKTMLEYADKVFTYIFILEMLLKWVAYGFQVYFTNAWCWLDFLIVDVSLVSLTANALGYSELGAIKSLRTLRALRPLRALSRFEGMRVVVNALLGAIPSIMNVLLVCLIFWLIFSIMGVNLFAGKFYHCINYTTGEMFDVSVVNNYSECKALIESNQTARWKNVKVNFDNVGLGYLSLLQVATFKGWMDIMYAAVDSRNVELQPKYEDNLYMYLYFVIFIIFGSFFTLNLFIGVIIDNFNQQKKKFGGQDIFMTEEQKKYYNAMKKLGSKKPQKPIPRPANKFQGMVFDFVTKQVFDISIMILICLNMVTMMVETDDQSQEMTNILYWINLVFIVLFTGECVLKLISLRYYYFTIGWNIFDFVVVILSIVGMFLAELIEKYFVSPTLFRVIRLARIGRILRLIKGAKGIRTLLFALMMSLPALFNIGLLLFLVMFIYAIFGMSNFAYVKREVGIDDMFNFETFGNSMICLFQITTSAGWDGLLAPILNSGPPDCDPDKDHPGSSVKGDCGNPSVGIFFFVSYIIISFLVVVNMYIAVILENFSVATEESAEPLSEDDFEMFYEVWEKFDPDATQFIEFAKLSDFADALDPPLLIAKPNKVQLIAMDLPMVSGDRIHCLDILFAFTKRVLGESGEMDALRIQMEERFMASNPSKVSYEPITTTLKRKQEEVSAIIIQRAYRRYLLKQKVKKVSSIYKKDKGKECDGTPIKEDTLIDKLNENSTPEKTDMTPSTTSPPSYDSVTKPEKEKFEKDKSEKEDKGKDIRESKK
Experimental: as §1, §2, §3

[1] = Human plasma protein binding by equilibrium dialysis; format: in vitro ADME; conditions: percentage bound
Experimental: The amount of compound in buffer (free fraction) and the amount of compound associated with the plasma fraction is determined by equilibrium dialysis; the amount of compound bound is expressed as a percentage. (Banker et al., Journal of Pharmaceutical Sciences (2003) 92(5): 967-74.)

[2] = 7-day repeat dose i.p. screening toxicity study in rats; format: in vivo, rat; conditions: female rats, 50 mg/kg/day i.p. for 7 consecutive days
Experimental: The compound of Formula (Ia) was evaluated in a 7-day repeat dose screening toxicity study in female rats. In order to maximize systemic exposure, rats were administered compound of Formula (Ia) i.p. at 50 mg/kg/day for 7 consecutive days, to obtain the results shown in FIG. 6. Clinical chemistry parameters were evaluated on Days 3 and 8. Histopathology was performed on select organs including the liver, kidney, spleen, and lung.

[3] = Single ascending dose Phase 1A study; format: in vivo, human; conditions: healthy male volunteers; 6 ascending single doses
From the text: A randomized, double-blind, placebo-controlled, cross-over, single dose, safety, tolerability and pharmacokinetic study of 6 ascending doses of the compound of Formula (Ia) was undertaken in two cohorts of healthy male volunteers. A total of eighteen eligible healthy mail volunteers were recruited utilizing an alternating panel design. The first cohort of nine subjects (Cohort 1) was sequentially enrolled into 3 of 6 dosing periods (Dose Levels 1, 3, and 5). The remaining cohort of nine subjects (Cohort 2) was enrolled in the other 3 dosing periods (Dose Levels 2, 4, and 6). Within each dosing period, subjects were randomly assigned 2:1 to the compound of Formula (I) (n=6) or placebo (n=3). Each subject received one dose of placebo and two different doses of the compound of Formula (I) over the course of their participation in all three dosing periods. Subjects were equally randomized to one of 3 possible sequences, namely 1) placebo, active, active, 2) active, placebo, active, and 3) active, active, placebo.

Chain of hTRPV1 (Q8NER1 whole entry): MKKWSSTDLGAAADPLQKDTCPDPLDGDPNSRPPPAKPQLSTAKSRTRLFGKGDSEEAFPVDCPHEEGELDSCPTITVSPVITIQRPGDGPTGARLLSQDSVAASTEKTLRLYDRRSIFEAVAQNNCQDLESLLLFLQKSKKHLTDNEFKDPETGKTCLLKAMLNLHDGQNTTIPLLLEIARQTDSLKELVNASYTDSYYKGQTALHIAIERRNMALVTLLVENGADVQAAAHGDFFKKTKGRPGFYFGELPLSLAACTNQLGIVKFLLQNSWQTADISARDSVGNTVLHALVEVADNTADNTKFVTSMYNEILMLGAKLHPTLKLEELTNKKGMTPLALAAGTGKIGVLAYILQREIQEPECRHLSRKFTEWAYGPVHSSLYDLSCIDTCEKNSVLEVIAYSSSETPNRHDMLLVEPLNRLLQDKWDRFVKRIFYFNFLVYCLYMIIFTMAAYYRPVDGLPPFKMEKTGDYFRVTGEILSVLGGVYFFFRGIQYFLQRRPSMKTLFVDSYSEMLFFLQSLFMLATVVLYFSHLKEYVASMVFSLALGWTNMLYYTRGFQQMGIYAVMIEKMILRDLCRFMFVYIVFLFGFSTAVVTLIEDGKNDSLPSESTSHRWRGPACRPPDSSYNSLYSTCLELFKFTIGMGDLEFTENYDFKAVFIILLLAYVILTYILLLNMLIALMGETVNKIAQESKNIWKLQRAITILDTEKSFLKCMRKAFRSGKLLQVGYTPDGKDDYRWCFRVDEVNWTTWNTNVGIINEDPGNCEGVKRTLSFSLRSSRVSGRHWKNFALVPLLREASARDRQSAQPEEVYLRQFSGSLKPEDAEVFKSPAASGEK

## C[C@H]1CCCN1c1ncc(-c2cccc(NC(=O)Cn3cnc4c3c(=O)n(C)c(=O)n4C)n2)cn1 [Formula (Ia)]
hTRPV1
  Fold Selectivity Compared to TRPA1: >100 fold
hTRPV1; 500 nanomolar Capsaicin, Inward (−80 mV)
  IC50: > 10 µM
hTRPV4
  Fold Selectivity Compared to TRPA1: ~170 fold
hTRPV4; 2 micromolar 4α-PDD, Inward (−80 mV)
  IC50: 16 µM
hTRPV6
  Fold Selectivity Compared to TRPA1: ~370 fold
hTRPV6; Voltage, Inward (−80 mV)
  IC50: 34 µM
hERG; Voltage, Tail current (−40 mV)
  IC50: > 10 µM
hERG; human, pH 7.4, read-out: Fold Selectivity Compared to TRPA1
  selectivity ratio: > 100
hNaV1.2
  Fold Selectivity Compared to TRPA1: >100 fold
hNaV1.2; Voltage, Peak Inward (0 mV)
  IC50: > 10 µM
[1]
  fraction unbound: > 0.01
[2]
  clinical signs, body weight, clinical chemistry parameters: no adverse clinical signs, changes in body weight, or changes in clinical chemistry parameters were noted
[2]; 50 mg/kg/day
  histopathology of liver, kidney, spleen, lung: No histopathological findings in the liver, kidney, spleen, or lung were observed; also recorded: no adverse effects related to the compound of Formula (Ia) were identified
[3]
  safety signals: no safety signals seen that were attributable to the compound of Formula (Ia)
